Assay results as given in patent publication US11345712B2, “Protein-targeting compounds and pharmaceutical compositions thereof, and their therapeutic applications” (BioTheryX, Inc., priority 2019, dated 2022).

Test system: MOLM-13 cells
Experiment: MOLM-13 cell viability assay (CellTiter-Glo)
Format: cell-based
Conditions: Homo sapiens, MOLM-13, 72 h, 3 days, concentration of 1 μM, read-out: Antiproliferative Activity (inhibition, MOLM-13 cell viability)
Outline: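 Luminescent ATP read-out (CellTiter-Glo, 10 min with shaking) after 3-day compound or DMSO exposure at 37° C, 5% CO2. Cells plated at 2,500/well in RPMI 1640 plus 10% FBS.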

| Structure (SMILES) | cytotoxicity at 1 µM |
| --- | --- |
| Cc1ccc(C(C(=O)NCc2scc3c2CN(C2CCC(=O)NC2=O)C3=O)C(C)C)cc1Cl (stereo not shown) [II-95, 2-(3-chloro-4-methylphenyl)-N-((5-(2,6-dioxopiperidin-3-yl)-4-oxo-5,6-dihydro-4H-thieno[3,4-c]pyrrol-1-yl)methyl)-3-methylbutanamide] | 25 to 50% |
| CCc1ccc(NC(=O)NCc2cc3c(s2)C(=O)N(C2CCC(=O)NC2=O)C3)cc1N(C)C (stereo not shown) [II-96, 1-(3-(dimethylamino)-4-ethylphenyl)-3-((5-(2,6-dioxopiperidin-3-yl)-6-oxo-5,6-dihydro-4H-thieno[2,3-c]pyrrol-2-yl)methyl)urea] | > 80% |
| CCN(CC)c1cc(NC(=O)NCc2cc3c(s2)C(=O)N(C2CCC(=O)NC2=O)C3)ccc1F (stereo not shown) [II-97, 1-(3-(diethylamino)-4-fluorophenyl)-3-((5-(2,6-dioxopiperidin-3-yl)-6-oxo-5,6-dihydro-4H-thieno[2,3-c]pyrrol-2-yl)methyl)urea] | > 80% |
| Cc1ccc(NC(=O)NCc2cc3c(s2)C(=O)N(C2CCC(=O)NC2=O)C3)cc1N1CCCC1 (stereo not shown) [II-98, 1-((5-(2,6-dioxopiperidin-3-yl)-6-oxo-5,6-dihydro-4H-thieno[2,3-c]pyrrol-2-yl)methyl)-3-(4-methyl-3-(pyrrolidin-1-yl)phenyl)urea] | > 80% |
| O=C1CCC(N2Cc3cc(CNC(=O)Nc4cccc(N5CCCC5)c4)sc3C2=O)C(=O)N1 (stereo not shown) [II-99, 1-((5-(2,6-dioxopiperidin-3-yl)-6-oxo-5,6-dihydro-4H-thieno[2,3-c]pyrrol-2-yl)methyl)-3-(3-(pyrrolidin-1-yl)phenyl)urea] | > 80% |
| CCN(C)c1cc(NC(=O)NCc2cc3c(s2)C(=O)N(C2CCC(=O)NC2=O)C3)ccc1C (stereo not shown) [II-100, 1-((5-(2,6-dioxopiperidin-3-yl)-6-oxo-5,6-dihydro-4H-thieno[2,3-c]pyrrol-2-yl)methyl)-3-(3-(ethyl(methyl)amino)-4-methylphenyl)urea] | > 80% |
| Cc1ccc(CCC(C)(C)C(=O)NCc2scc3c2CN([C@H]2CCC(=O)NC2=O)C3=O)cc1Cl [II-104, (S)-4-(3-chloro-4-methylphenyl)-N-((5-(2,6-dioxopiperidin-3-yl)-4-oxo-5,6-dihydro-4H-thieno[3,4-c]pyrrol-1-yl)methyl)-2,2-dimethylbutanamide] | < 25% |
| Cc1ccc(NC(=O)NCc2cc3c(s2)C(=O)N(C2CCC(=O)N(COP(=O)(OC(C)(C)C)OC(C)(C)C)C2=O)C3)cc1N(C)C (stereo not shown) [II-105, di-tert-butyl ((3-(2-((3-(3-(dimethylamino)-4-methylphenyl)ureido)-methyl)-6-oxo-4,6-dihydro-5H-thieno[2,3-c]pyrrol-5-yl)-2,6-dioxopiperidin-1-yl)methyl) phosphate] | < 25% |
| CC(C)c1ccc(C(C(=O)NCc2scc3c2CN(C2CCC(=O)NC2=O)C3=O)C(C)C)cc1 (stereo not shown) [II-106, N-((5-(2,6-dioxopiperidin-3-yl)-4-oxo-5,6-dihydro-4H-thieno[3,4-c]pyrrol-1-yl)methyl)-2-(4-isopropylphenyl)-3-methylbutanamide] | < 25% |
| CN(C)C(C(=O)NCc1scc2c1CN(C1CCC(=O)NC1=O)C2=O)c1ccccc1F (stereo not shown) [II-108, 2-(dimethylamino)-N-((5-(2,6-dioxopiperidin-3-yl)-4-oxo-5,6-dihydro-4H-thieno[3,4-c]pyrrol-1-yl)methyl)-2-(2-fluorophenyl)acetamide] | < 25% |
| CCCOc1ccc(C(N)C(=O)NCc2scc3c2CN(C2CCC(=O)NC2=O)C3=O)cc1 (stereo not shown) [II-112, 2-amino-N-((5-(2,6-dioxopiperidin-3-yl)-4-oxo-5,6-dihydro-4H-thieno[3,4-c]pyrrol-1-yl)methyl)-2-(4-propoxyphenyl)acetamide] | < 25% |
| NC(C(=O)NCc1scc2c1CN(C1CCC(=O)NC1=O)C2=O)c1ccc(O)cc1 (stereo not shown) [II-113, 2-amino-N-((5-(2,6-dioxopiperidin-3-yl)-4-oxo-5,6-dihydro-4H-thieno[3,4-c]pyrrol-1-yl)methyl)-2-(4-hydroxyphenyl)acetamide] | < 25% |
| Cc1ccc(NC(=O)NCc2cc3c(s2)C(=O)N(C2CCC(=O)NC2=O)C3=O)cc1N(C)C (stereo not shown) [II-114, 1-(3-(dimethylamino)-4-methylphenyl)-3-((5-(2,6-dioxopiperidin-3-yl)-4,6-dioxo-5,6-dihydro-4H-thieno[2,3-c]pyrrol-2-yl)methyl)urea] | 25 to 50% |
| Cc1cc(CCCC(=O)NCc2scc3c2CN(C2CCC(=O)NC2=O)C3=O)ccc1N(C)C (stereo not shown) [II-115, 4-(4-(dimethylamino)-3-methylphenyl)-N-((5-(2,6-dioxopiperidin-3-yl)-4-oxo-5,6-dihydro-4H-thieno[3,4-c]pyrrol-1-yl)methyl)butanamide] | < 25% |
| COc1c(F)cccc1CC(=O)NCc1cc2c(s1)C(=O)N(C1CCC(=O)NC1=O)C2 (stereo not shown) [II-116, N-((5-(2,6-dioxopiperidin-3-yl)-6-oxo-5,6-dihydro-4H-thieno[2,3-c]pyrrol-2-yl)methyl)-2-(3-fluoro-2-methoxyphenyl)acetamide] | < 25% |
| O=C1CCC(N2Cc3c(csc3CNC(=S)Nc3c(Cl)c(Cl)cc(Cl)c3Cl)C2=O)C(=O)N1 (stereo not shown) [II-123, 1-((5-(2,6-dioxopiperidin-3-yl)-4-oxo-5,6-dihydro-4H-thieno[3,4-c]pyrrol-1-yl)methyl)-3-(2,3,5,6-tetrachlorophenyl)thiourea] | < 25% |
| CC(C)(C)c1ccc(S(=O)(=O)NCc2scc3c2CN(C2CCC(=O)NC2=O)C3=O)cc1 (stereo not shown) [II-124, 4-(tert-butyl)-N-((5-(2,6-dioxopiperidin-3-yl)-4-oxo-5,6-dihydro-4H-thieno[3,4-c]pyrrol-1-yl)methyl)benzenesulfonamide] | < 25% |
| CC(C)(C)c1ccc(C2(C(=O)NCc3scc4c3CN(C3CCC(=O)NC3=O)C4=O)CC2)cc1 (stereo not shown) [II-127, 1-(4-(tert-butyl)phenyl)-N-((5-(2,6-dioxopiperidin-3-yl)-4-oxo-5,6-dihydro-4H-thieno[3,4-c]pyrrol-1-yl)methyl)cyclopropane-1-carboxamide] | 25 to 50% |
| CC(C)(C)c1ccc(CS(=O)(=O)NCc2scc3c2CN(C2CCC(=O)NC2=O)C3=O)cc1 (stereo not shown) [II-128, 1-(4-(tert-butyl)phenyl)-N-((5-(2,6-dioxopiperidin-3-yl)-4-oxo-5,6-dihydro-4H-thieno[3,4-c]pyrrol-1-yl)methyl)methanesulfonamide] | > 80% |
| CC(C)(C)c1ccc(C(F)(F)C(=O)NCc2scc3c2CN(C2CCC(=O)NC2=O)C3=O)cc1 (stereo not shown) [II-129, 2-(4-(tert-butyl)phenyl)-N-((5-(2,6-dioxopiperidin-3-yl)-4-oxo-5,6-dihydro-4H-thieno[3,4-c]pyrrol-1-yl)methyl)-2,2-difluoroacetamide] | < 25% |
| CC(C)(C)c1ccc(S(=O)(=O)NCCc2scc3c2CN(C2CCC(=O)NC2=O)C3=O)cc1 (stereo not shown) [II-131, 4-(tert-butyl)-N-(2-(5-(2,6-dioxopiperidin-3-yl)-4-oxo-5,6-dihydro-4H-thieno[3,4-c]pyrrol-1-yl)ethyl)benzenesulfonamide] | < 25% |
| CC(C)(C)c1ccc(C(O)C(=O)NCc2scc3c2CN(C2CCC(=O)NC2=O)C3=O)cc1 (stereo not shown) [II-132, 2-(4-(tert-butyl)phenyl)-N-((5-(2,6-dioxopiperidin-3-yl)-4-oxo-5,6-dihydro-4H-thieno[3,4-c]pyrrol-1-yl)methyl)-2-hydroxyacetamide] | 25 to 50% |
